From patent publication US11124485B2, “Deoxyuridine triphosphatase inhibitors containing cyclopropano linkage” (CV6 Therapeutics (NI) Limited, priority 2015, dated 2021)

What was measured:
[1] = system: colorectal (HCT116 and SW620) cell line models; assay: MTS growth inhibition assay; format: cell-based; settings: increasing concentrations of 5-FU between 0 and 100 μmol/L; both colorectal cancer cell lines
Method: The Cell Titer AQueous MTS assay (Promega) is carried out according to the manufacturers guidelines. […] The combination effect is determined by the combination index (CI) method utilizing Calcusyn software (Biosoft, Ferguson, Mo.). Fraction affected (FA) is calculated from the percent growth inhibition: FA=(100−% growth inhibition)/100.
Test compounds are evaluated for their antitumor activity in colorectal cancer cells using the MTS growth inhibition assay. HCT116 and SW620 cells are exposed to increasing concentrations of each agent for 72 hours and growth inhibition is directly compared to vehicle-treated controls. The NSCLC cell lines A549 and H1299 are exposed to increasing concentrations of each agent for 72 hours and growth inhibition is directly compared to vehicle-treated controls.
MTS growth inhibition assays are performed to evaluate the effectiveness of the test compounds alone and in combination with the fluoropyrimidine thymidylate synthase (TS) inhibitor 5-fluorouracil (5-FU) at inhibiting the growth of colorectal (HCT116 and SW620) cell line models. […] Simultaneous treatment with increasing concentrations of 5-FU and a test compound at fixed concentrations of 25 μmol/L is determined.

[2] = system: colorectal (HCT116), breast (MCF-7) and non-small cell lung (H1299, A549, H358 and H460) cell line models; assay: Colony forming assay; format: cell-based; settings: increasing concentrations of FUdR between 0.5 and 2.5 μmol/L; all cell lines evaluated
Method: Colony forming assay showing the ability of colon (SW620, HCT116), non-small cell lung (A549, H460, H1299 and H358) and breast (MCF7) cancer cells to survive and proliferate following transient 24 hour exposure to test compounds, FUdR and combinations are determined. Specifically, cells are seeded at densities between 50 and 100 cells/well in 24-well plates. Twenty-four hours later, cells are treated with increasing concentrations of a test compound, a fixed dose of FUdR and combinations of these. After 24 hours, drug is removed, cells are rinsed and allowed to outgrow for 10-14 days. At the conclusion of the outgrowth, cells are fixed in 60% ice cold methanol and stained with 0.1% crystal violet, scanned and counted. Data is presented as percentage of untreated controls (mean±SD). Fraction affected and combination indexes are calculated according to the method of Chou and Talalay where <1 is indicative of a synergistic drug interaction.
Colony forming assays are performed to evaluate the effectiveness of test compounds alone and in combination with the fluoropyrimidine thymidylate synthase (TS) inhibitor fluorodeoxyuridine (FUdR) at reducing cancer cell viability in colorectal (HCT116), breast (MCF-7) and non-small cell lung (H1299, A549, H358 and H460) cell line models. […]

SMILES: O=c1[nH]cc(F)c(=O)[nH]1 [Compound 5-FU, 5-fluorouracil]
- growth inhibition [1]: dose-dependent increases in growth inhibition

SMILES: O=c1[nH]c(=O)n([C@H]2C[C@H](O)[C@@H](CO)O2)cc1F [FUdR, fluorodeoxyuridine]
- colonies formed [2]: dose-dependent decreases in colonies formed
